Test results published in article PMC8953660, “Selective measurement of NAPE-PLD activity via a PLA1/2-resistant fluorogenic N-acyl-phosphatidylethanolamine analog” (Journal of Lipid Research, 2021).
Like-named read-outs stand apart in the source and are kept apart here.

Target: T1, recombinant mouse Nape-pld (NAPE-PLD) (Mus musculus, UniProt Q8BH82)
T1 construct: gene Napepld
Settings: 50 mM Tris-HCl pH 8.0, N-octyl-β-D-glucoside, 37 °C, allosteric sigmoidal fit

T1 sequence (Q8BH82 whole entry): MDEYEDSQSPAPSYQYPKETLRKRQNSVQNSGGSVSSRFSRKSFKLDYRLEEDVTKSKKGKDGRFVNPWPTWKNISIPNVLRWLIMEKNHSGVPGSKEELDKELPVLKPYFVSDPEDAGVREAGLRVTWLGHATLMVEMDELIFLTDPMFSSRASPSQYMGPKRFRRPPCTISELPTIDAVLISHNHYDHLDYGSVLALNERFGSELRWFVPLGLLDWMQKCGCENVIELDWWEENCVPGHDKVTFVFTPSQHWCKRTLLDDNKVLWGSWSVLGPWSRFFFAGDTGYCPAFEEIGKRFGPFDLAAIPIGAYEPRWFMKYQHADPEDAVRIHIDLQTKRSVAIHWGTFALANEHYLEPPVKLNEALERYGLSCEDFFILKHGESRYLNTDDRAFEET

| Structure (SMILES) | Km [µM] | Km (authors note evidence of an inadequate regression model for flame-NAPE) [µM] |
| --- | --- | --- |
| CCCCCCO[C@H](COC(=O)CCCCC1=[N+]2C(=Cc3c(C)cc(C)n3[B-]2(F)F)C=C1)COP(=O)(O)OCCNC(=O)CCCCCNc1ccc([N+](=O)[O-])cc1[N+](=O)[O-] [PED-A1] | 4 | – |
| CCCCCCO[C@@H](COP(=O)(O)OCCNC(=O)CCCCCNc1ccc([N+](=O)[O-])cc1[N+](=O)[O-])CN(C)C(=O)CCCCc1ccc2n1[B-](F)(F)[N+]1=C(C)C=C(C)C1=C2 [flame-NAPE] | – | 9.2 |
